Paper PMC7468108 (Communications Biology, 2020)

What was measured:
[1] = target: T1, pre-formed fibrils of hIAPP (Homo sapiens, UniProt P10997); test: TEM of pre-formed hIAPP fibrils with the tested molecules; conditions: 5-fold molar excess of compound
T1 construct: hIAPP is a 37-amino acid neuroendocrine peptide hormone; purchased Peptide 2.0 (USA)
T1 sequence (P10997 34-70 limits assumed): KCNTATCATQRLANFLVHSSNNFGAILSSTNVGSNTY
Experimental: (§1) For efficient treatment of proteinopathies it may be advantageous to disassemble amyloid aggregates/fibrils which are usually already present at the time of diagnosis[75]–[77]. Therefore, the ability of the hybrid molecules to disrupt pre-formed fibrils of Aβ42 and hIAPP was examined. […] According to the ThT kinetic results, this time was sufficient to complete fibril formation (Fig. 2a, d). Then, various doses of the hybrid molecules were added to the pre-formed fibrils and the mixtures were incubated for additional 10 h. The process of disaggregation was monitored by ThT-binding assay, CD spectroscopy, TEM and Congo red staining (Fig. 5).
Samples (10 µL) were placed for 2 min on 400-mesh copper grids covered with carbon-stabilized Formvar film (Electron Microscopy Sciences (EMS), Hatfield, PA). Excess fluid was removed, and grids were negatively stained with 2% uranyl acetate solution (10 µL) for 2 min. After excess fluid removal, the samples were visualized using a JEM-1400 TEM (JEOL), operated at 80 kV.

[2] = target: T1, pre-formed fibrils of hIAPP; test: Congo red birefringence of pre-formed hIAPP fibrils with the tested molecules; conditions: 5-fold molar excess of compound
Experimental: as §1

## NC(Cc1c[nH]c2ccccc12)C(=O)NC(Cc1c[nH]c2ccccc12)C(=O)O (centres unmarked) [WW]
[1]
  pre-formed hIAPP fibrils by TEM, in words: unchanged
[2]
  Congo red birefringence of pre-formed hIAPP fibrils, in words: unchanged
